According to the NIST ThermoML archive (doi:10.1021/je700029q):
“And” between values parts separate entries of the source, which are not always exact repeats. Equal values may be shown once.

Assays:
[1] = refractive index (Na D-line) (dimensionless); xn = mol fraction of the nth substance listed; conditions: 298.15 K, 101 kPa, Liquid
[2] = xn = mol fraction of the nth substance listed; conditions: 101 kPa, Liquid
[3] = 101 kPa, Liquid
[4] = refractive index (Na D-line) (dimensionless); conditions: 298.15 K; 101.33 kPa; Liquid

CCCO [propan-1-ol] + CCOS(=O)(=O)[O-].CCn1cc[n+](C)c1
Conditions | refractive index
[1], x1 = 1 | 1.3831

[2], x1 = 1
Conditions | mass density [kg/m3] | speed of sound [m/s] | viscosity [mPa·s]
298.15 K | 799.6 | 1207 | 2.017
313.15 K | 787.4 | 1155 | 1.43
328.15 K | 774.8 | 1105 | 1.041

CCOS(=O)(=O)[O-].CCn1cc[n+](C)c1 [1-ethyl-3-methylimidazolium ethyl sulfate]
[3]
Conditions | mass density [kg/m3] | speed of sound | viscosity [mPa·s]
298.15 K | 1237.6 | 1679 m/s | 97.58
313.15 K | 1227.5 | 1641 m/s and 1642 m/s and 1643 m/s | 50.01
328.15 K | 1217.5 | 1605 m/s | 29.18

Conditions | refractive index
[4] | 1.4794

CCOS(=O)(=O)[O-].CCn1cc[n+](C)c1 [1-ethyl-3-methylimidazolium ethyl sulfate] + CCCO
[1]
Conditions | refractive index
x2 = 0 | 1.4794
x2 = 0.1619 | 1.47317
x2 = 0.2104 | 1.47102
x2 = 0.336 | 1.46449
x2 = 0.5159 | 1.4524
x2 = 0.7298 | 1.43139
x2 = 0.8046 | 1.42139
x2 = 0.8894 | 1.40743
x2 = 0.9401 | 1.39739
x2 = 0.9727 | 1.39003

[2]
Conditions | mass density, 298.15 K [kg/m3] | mass density, 313.15 K [kg/m3] | mass density, 328.15 K [kg/m3] | speed of sound, 298.15 K [m/s] | speed of sound, 313.15 K [m/s] | speed of sound, 328.15 K [m/s] | viscosity, 298.15 K [mPa·s] | viscosity, 313.15 K [mPa·s] | viscosity, 328.15 K [mPa·s]
x2 = 0 | 1237.6 | 1227.5 | 1217.5 | 1679 | 1642 | 1605 | 97.58 | 50.01 | 29.18
x2 = 0.1619 | 1208.1 | 1197.9 | 1187.6 | 1637 | 1600 | 1565 | 60.85 | 33.73 | 20.84
x2 = 0.2104 | 1197.9 | 1187.6 | 1177.3 | 1620 | 1584 | 1548 | 52.11 | 29.56 | 18.59
x2 = 0.336 | 1167.4 | 1157.1 | 1146.7 | 1574 | 1537 | 1501 | 34.41 | 20.72 | 13.61
x2 = 0.5159 | 1111.6 | 1100.8 | 1090.2 | 1492 | 1456 | 1419 | 18.01 | 11.73 | 8.159
x2 = 0.7298 | 1015.5 | 1004.4 | 993.2 | 1382 | 1340 | 1300 | 7.296 | 5.125 | 3.774
x2 = 0.8046 | 970 | 958.6 | 947.2 | 1337 | 1294 | 1252 | 5.491 | 3.918 | 2.918
x2 = 0.8894 | 907.7 | 895.9 | 884 | 1284 | 1238 | 1193 | 3.577 | 2.58 | 1.923
x2 = 0.9401 | 862.5 | 850.6 | 838.5 | 1249 | 1201 | 1154 | 2.776 | 1.997 | 1.482
x2 = 0.9727 | 829.8 | 817.8 | 805.5 | 1227 | 1178 | 1130 | 2.419 | 1.729 | 1.272

CCCO [propan-1-ol]
[3]
Conditions | mass density [kg/m3] | speed of sound [m/s] | viscosity [mPa·s]
298.15 K | 799.6 | 1207 | 2.017
313.15 K | 787.4 | 1155 | 1.43
328.15 K | 774.8 | 1105 | 1.041

Conditions | refractive index
[4] | 1.3831

CC(C)O [propan-2-ol] + CCOS(=O)(=O)[O-].CCn1cc[n+](C)c1
Conditions | refractive index
[1], x1 = 1 | 1.37495

[2], x1 = 1
Conditions | mass density [kg/m3] | speed of sound [m/s] | viscosity [mPa·s]
298.15 K | 780.7 | 1138 | 2.082
313.15 K | 767.8 | 1085 | 1.354
328.15 K | 753.9 | 1031 | 0.919

CO [methanol] + CCOS(=O)(=O)[O-].CCn1cc[n+](C)c1
Conditions | refractive index
[1], x1 = 1 | 1.32687

[2], x1 = 1
Conditions | mass density [kg/m3] | speed of sound [m/s] | viscosity [mPa·s]
298.15 K | 786.4 | 1103 | 0.546
313.15 K | 772.3 | 1055 | 0.446
328.15 K | 757.8 | 1006 | 0.369

CO [methanol]
[3]
Conditions | mass density [kg/m3] | speed of sound [m/s] | viscosity [mPa·s]
298.15 K | 786.4 | 1103 | 0.546
313.15 K | 772.3 | 1055 | 0.446
328.15 K | 757.8 | 1006 | 0.369

Conditions | refractive index
[4] | 1.32687
